Laboratory results reported in BindingDB's records for doi:10.1021/jm00087a006 (University of Michigan, 1992).
Positions of bridges follow the written chain, without caps; N, C: chain ends. Non-standard residues stand in square brackets, D forms with d. Residues, ends and D or L forms follow the SMILES beside them. Phe(4-NO2) = N[C@@H](Cc1ccc([N+](=O)[O-])cc1)C(=O)O; Phe(4-tBu) = CC(C)(C)c1ccc(C[C@H](N)C(=O)O)cc1; Phe(4-Cl) = N[C@@H](Cc1ccc(Cl)cc1)C(=O)O; Phe(3-F) = N[C@@H](Cc1cccc(F)c1)C(=O)O; Phe(4-F) = N[C@@H](Cc1ccc(F)cc1)C(=O)O; Phe(4-Me) = Cc1ccc(C[C@H](N)C(=O)O)cc1; Phe(2-F) = N[C@@H](Cc1ccccc1F)C(=O)O; mTyr = N[C@@H](Cc1cccc(O)c1)C(=O)O; Pen = CC(C)(S)[C@H](N)C(=O)O

Tests used:
[1] = Compound was tested for the inhibition of [3H]- [D-Pen2, D-Pen5]-enkephalin (DPDPE) binding to Opioid receptor delta 1 in guinea pig brain homogenates
[2] = as above; remark: listed apart in the source
[3] = Compound was tested for the inhibition of [3H]- [D-Pen2, D-Pen5]-enkephalin (DPDPE) binding to opioid receptor delta in guinea pig brain homogenates

| SMILES | Ki [1] [nM] | Ki [2] [nM] | Ki [3] [nM] |
| --- | --- | --- | --- |
| CC1(C)SSC[C@H](NC(=O)[C@@H](N)Cc2ccc(O)cc2)C(=O)N[C@@H](Cc2ccc(O)cc2)C(=O)N[C@@H]1C(=O)O (H-YCY[Pen]-OH; disulfide 2-4) | 26 |  |  |
| CC1(C)SSC[C@H](NC(=O)[C@@H](N)Cc2ccc(O)cc2)C(=O)N[C@@H](Cc2ccccc2F)C(=O)N[C@@H]1C(=O)O (H-YC[Phe(2-F)][Pen]-OH; disulfide 2-4) |  | 3.3 |  |
| CC1(C)SSC[C@H](NC(=O)[C@@H](N)Cc2ccc(O)cc2)C(=O)N[C@@H](Cc2cccc(F)c2)C(=O)N[C@@H]1C(=O)O (H-YC[Phe(3-F)][Pen]-OH; disulfide 2-4) |  | 2.9 |  |
| CC1(C)SSC[C@H](NC(=O)[C@@H](N)Cc2ccc(O)cc2)C(=O)N[C@@H](Cc2ccc(Cl)cc2)C(=O)N[C@@H]1C(=O)O (H-YC[Phe(4-Cl)][Pen]-OH; disulfide 2-4) |  | 0.98 |  |
| CC1(C)SSC[C@H](NC(=O)[C@@H](N)Cc2ccc(O)cc2)C(=O)N[C@@H](Cc2ccc(F)cc2)C(=O)N[C@@H]1C(=O)O (H-YC[Phe(4-F)][Pen]-OH; disulfide 2-4) | 1.1 |  |  |
| Cc1ccc(C[C@@H]2NC(=O)[C@@H](NC(=O)[C@@H](N)Cc3ccc(O)cc3)CSSC(C)(C)[C@@H](C(=O)O)NC2=O)cc1 (H-YC[Phe(4-Me)][Pen]-OH; disulfide 2-4) |  | 5.4 |  |
| CC1(C)SSC[C@H](NC(=O)[C@@H](N)Cc2ccc(O)cc2)C(=O)N[C@@H](Cc2ccc([N+](=O)[O-])cc2)C(=O)N[C@@H]1C(=O)O (H-YC[Phe(4-NO2)][Pen]-OH; disulfide 2-4) | 1.7 |  |  |
| CC(C)(C)c1ccc(C[C@@H]2NC(=O)[C@@H](NC(=O)[C@@H](N)Cc3ccc(O)cc3)CSSC(C)(C)[C@@H](C(=O)O)NC2=O)cc1 (H-YC[Phe(4-tBu)][Pen]-OH; disulfide 2-4) | 648 |  | 37 |
| CC1(C)SSC[C@H](NC(=O)[C@@H](N)Cc2ccc(O)cc2)C(=O)N[C@@H](Cc2cccc(O)c2)C(=O)N[C@@H]1C(=O)O (H-YC[mTyr][Pen]-OH; disulfide 2-4) | 148 |  | 9.3 |
